Data as given in patent publication US20200407712A1, “ARRAY-BASED CYCLIC PEPTIDE LIBRARIES” (HealthTell Inc., priority 2018, published 2020).

What was measured:
[1] = intramolecular disulfide formation by ambient air oxidation of bis-Cys peptides on SiO2 array surface after side-chain deprotection (TFA/TMS-OTf) and NH3-gas DKP detachment; fraction oxidized from MALDI relative peak intensities; conditions: the molecule shown is the open-chain precursor, none (dry film on SiO2, ambient air), other, 18.0 h, scale: fraction oxidized
[2] = system: Ferredoxin NADP+ Reductase (FNR); test: FNR counter screen on linear and lactam constrained peptide microarrays; format: binding; conditions: 10.0 nM protein applied to the array; for FNR Lactam, log 10 transformed median intensity: lactam constrained library peptide; for FNR Linear, log 10 transformed median intensity: linear library peptide
Description: (§1) Diaphorase is NAD(P)H dehydrogenase (UniProtKB: P15559) encoded by the NQO1 gene. Diaphorase has utility as a model enzyme; for which peptide based synthetic affinity agents to diaphorase are required. A 3.3 million feature peptide array was used to identify potential binding partner peptides for diaphorase. Ferredoxin NADP+ Reductase (FNR) and Ferredoxin are included as counter screens for a specific application, while immunoglobulin depleted human serum (Non-Immunoglobulin Serum Components or NISC) was used as a complex mixture to control for generally sticky peptides.
(§2) Peptide arrays were prepared for protein binding by pretreating the arrays in PBST for 30 min at […]. Direct labeled diaphorase (Alexa Fluor™ 555), direct labeled FNR (Alexa Fluor™ 555) and biotinylated ferredoxin were applied to the arrays at 1.0 and 10.0 nM along with direct labeled NISC at 0.001 mg/mL for 1 hr at 37° C. Arrays were washed 3× with PBST and Streptavidin-Alexa Fluor™ 555 was applied to the biotinylated ferredoxin and streptavidin alone arrays. All other arrays received PBST and were incubated for 1 hr at 37° C. Arrays were washed with PBST and p53Ab1-Alexa Fluor™ 647 applied to all arrays to illuminate the edge fiducials for 10 min at 37° C. Following the final incubation arrays were washed in PBST and water, dried and imaged on the ImageXpress ([…]). Triplicate arrays were used for the subsequent analysis except for when rejection of an array was necessary due to the presence of artifacts. Data were analyzed using a custom R script.

[3] = system: Non-Immunoglobulin Serum Components (NISC); test: NISC counter screen on linear and lactam constrained peptide microarrays; format: binding, human; conditions: 0.001 mg/mL NISC applied to the array; for NISC Lactam, log 10 transformed median intensity: lactam constrained library peptide; for NISC Linear, log 10 transformed median intensity: linear library peptide
Description: as §1, §2
Peptides were also selected based on the difference in log 10 transformed intensities between diaphorase and NISC as the counter screen agent (LFGdiaphorase minus LFGNISC). Intensities for 10.0 nM diaphorase and 0.001 mg/mL NISC are shown in FIG. 29A where intensities plotted are the log 10 transformed median intensity from replicate arrays. Coloring of the points represents the density of features at that intensity using a grey colorscale. Light grey represents areas of low peptide numbers while black represents the intensity having the highest number of peptides. The diagonal line is equivalence line. Selectivity vs NISC was not dependent on cyclization as diaphorase also bound the linear forms for some peptides (Table 4). Three peptides having the highest degree of cyclization in the quality control assay were identified and binding intensities compared to other library peptides having one or two amino acid substitutions (FIG. 30) Each CLUSTAL alignment contains the library peptides having a maximum of two substitutions to the parent peptide. Dark grey highlights indicate a residue conserved in more than 60% of the peptides. Light grey highlights indicate chemically similar amino acids to the conserved residue. The amino acid usage is indicated in the sequence logo above the alignment. Substitutional analysis provides confidence in the array data by indicating which residues are important for binding.

Ferredoxin = test: Biotinylated ferredoxin counter screen on linear and lactam constrained peptide microarrays; format: binding; conditions: 10.0 nM biotinylated protein, detected with Streptavidin-Alexa Fluor 555; for Ferredoxin Lactam, log 10 transformed median intensity: lactam constrained library peptide; for Ferredoxin Linear, log 10 transformed median intensity: linear library peptide
Description: as §1, §2

human diaphorase (NQO1) = molecular target: T1, human diaphorase (NQO1) (Homo sapiens, UniProt P15559); test: Alexa Fluor 555-diaphorase binding to linear and lactam constrained peptide microarrays; conditions: 10.0 nM protein applied to the array; for Diaphorase Lactam, log 10 transformed median intensity: lactam constrained library peptide; for Diaphorase Linear, log 10 transformed median intensity: linear library peptide
T1 construct: purchased SigmaAldrich
T1 sequence (P15559 whole entry): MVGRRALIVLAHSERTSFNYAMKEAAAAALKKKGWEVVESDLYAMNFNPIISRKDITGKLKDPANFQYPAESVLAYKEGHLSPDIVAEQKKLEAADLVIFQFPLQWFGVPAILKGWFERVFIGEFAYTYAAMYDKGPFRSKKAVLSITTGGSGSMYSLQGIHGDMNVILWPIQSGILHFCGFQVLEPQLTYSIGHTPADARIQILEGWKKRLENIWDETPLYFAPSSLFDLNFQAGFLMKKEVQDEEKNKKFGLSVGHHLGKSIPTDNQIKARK
Description: as §1
Two wafers from the same synthesis batch were obtained where one wafer was prepared with the lactam chemistry and constrained into a cyclized form. The degree of cyclization was confirmed using the biotinylation assay described in Examples 9, 17, and 19.
as §2
Intensities plotted are the log 10 transformed median intensity from replicate arrays. Coloring of the points represents the density of features at that intensity using a gray-scale map. Light grey represents areas of low peptide numbers while black represents the intensity having the highest number of peptides. The diagonal line is equivalence line. […] CLUSTAL sequence alignment (FIG. 27B) of the sequences indicated similarities in amino acid composition. Highlighted amino acids are conserved in over 60% of the peptides for that position or are a chemically similar amino acid (ie: F and Y).
The sequences contain similar amino acid usage. Four peptides having the highest degree of cyclization in the quality control assay were identified and binding intensities compared to other library peptides having one or two amino acid substitutions as shown in FIG. 28. Substitutional analysis provides confidence in the array data by indicating which residues are important for binding. Dark grey boxes highlight indicate a residue conserved in more than 60% of the peptides. Light grey boxes highlight indicate chemically similar amino acids to the conserved residue. RFI is the intensity is the median replicate log 10 intensity for the 10.0 nM Diaphorase.

Streptavidin = Streptavidin (Streptomyces avidinii, UniProt P22629); test: Streptavidin-Alexa Fluor 555 alone on linear and lactam constrained peptide microarrays; format: binding; conditions: for Streptavidin Lactam, log 10 transformed median intensity: lactam constrained library peptide; for Streptavidin Linear, log 10 transformed median intensity: linear library peptide
Chain of Streptavidin (P22629 25-183, species assumed): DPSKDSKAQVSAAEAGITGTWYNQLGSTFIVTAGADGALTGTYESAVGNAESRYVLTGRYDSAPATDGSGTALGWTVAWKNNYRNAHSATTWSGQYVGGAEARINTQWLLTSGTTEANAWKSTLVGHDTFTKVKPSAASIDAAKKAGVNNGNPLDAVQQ
Description: as §2

Molecule | ring closure, fraction oxidized by MALDI ([1]; 8-membered ring) | ring closure, fraction oxidized by MALDI ([1]; 14-membered ring) | ring closure, fraction oxidized by MALDI ([1]; 20-membered ring) | FNR Lactam, log 10 transformed median intensity [2] | FNR Linear, log 10 transformed median intensity [2] | NISC Lactam, log 10 transformed median intensity [3] | NISC Linear, log 10 transformed median intensity [3] | Ferredoxin Lactam, log 10 transformed median intensity (Ferredoxin) | Ferredoxin Linear, log 10 transformed median intensity (Ferredoxin) | Diaphorase Lactam, log 10 transformed median intensity (human diaphorase (NQO1)) | Diaphorase Linear, log 10 transformed median intensity (human diaphorase (NQO1)) | Streptavidin Lactam, log 10 transformed median intensity (Streptavidin) | Streptavidin Linear, log 10 transformed median intensity (Streptavidin)
COc1cc(OC)c([P+](CC(=O)N[C@@H](CS)C(=O)N[C@@H](CS)C(=O)NCCCC[C@@H]2NC(=O)[C@@H]3CCCN3C2=O)(c2c(OC)cc(OC)cc2OC)c2c(OC)cc(OC)cc2OC)c(OC)c1 [TMPP-Ac-Cys-Cys-DKP [DKP = N-epsilon of cyclo(Lys-Pro)]] | 0.8 | – | – | – | – | – | – | – | – | – | – | – | –
COc1cc(OC)c([P+](CC(=O)N[C@@H](Cc2ccc(O)cc2)C(=O)N[C@@H](CS)C(=O)N2CCC[C@H]2C(=O)NCC(=O)N[C@@H](CS)C(=O)N[C@@H](CO)C(=O)NCCCC[C@@H]2NC(=O)[C@@H]3CCCN3C2=O)(c2c(OC)cc(OC)cc2OC)c2c(OC)cc(OC)cc2OC)c(OC)c1 | – | 0.76 | – | – | – | – | – | – | – | – | – | – | –
COc1cc(OC)c([P+](CC(=O)N[C@@H](CS)C(=O)N2CCC[C@H]2C(=O)NCC(=O)N[C@@H](CS)C(=O)NCCCC[C@@H]2NC(=O)[C@@H]3CCCN3C2=O)(c2c(OC)cc(OC)cc2OC)c2c(OC)cc(OC)cc2OC)c(OC)c1 | – | 0.77 | – | – | – | – | – | – | – | – | – | – | –
COc1cc(OC)c([P+](CC(=O)N[C@@H](CCCCN)C(=O)N[C@@H](CS)C(=O)N[C@H](C(=O)N2CCC[C@H]2C(=O)NCC(=O)N[C@@H](Cc2c[nH]cn2)C(=O)N[C@@H](CS)C(=O)N[C@@H](CC(C)C)C(=O)NCCCC[C@@H]2NC(=O)[C@@H]3CCCN3C2=O)[C@@H](C)O)(c2c(OC)cc(OC)cc2OC)c2c(OC)cc(OC)cc2OC)c(OC)c1 | – | – | 0.63 | – | – | – | – | – | – | – | – | – | –
COc1cc(OC)c([P+](CC(=O)N[C@@H](CS)C(=O)N[C@@H](CCC(N)=O)C(=O)N[C@@H](Cc2ccc(O)cc2)C(=O)N[C@@H](CS)C(=O)NCCCC[C@@H]2NC(=O)[C@@H]3CCCN3C2=O)(c2c(OC)cc(OC)cc2OC)c2c(OC)cc(OC)cc2OC)c(OC)c1 | – | 0.72 | – | – | – | – | – | – | – | – | – | – | –
COc1cc(OC)c([P+](CC(=O)N[C@@H](CS)C(=O)N[C@H](C(=O)N[C@@H](Cc2c[nH]cn2)C(=O)N[C@@H](CS)C(=O)NCCCC[C@@H]2NC(=O)[C@@H]3CCCN3C2=O)[C@@H](C)O)(c2c(OC)cc(OC)cc2OC)c2c(OC)cc(OC)cc2OC)c(OC)c1 | – | 0.78 | – | – | – | – | – | – | – | – | – | – | –
COc1cc(OC)c([P+](CC(=O)N[C@@H](CS)C(=O)N[C@H](C(=O)N[C@@H](CCC(N)=O)C(=O)N[C@@H](Cc2c[nH]cn2)C(=O)N[C@@H](Cc2ccc(O)cc2)C(=O)N[C@@H](CS)C(=O)NCCCC[C@@H]2NC(=O)[C@@H]3CCCN3C2=O)[C@@H](C)O)(c2c(OC)cc(OC)cc2OC)c2c(OC)cc(OC)cc2OC)c(OC)c1 | – | – | 0.75 | – | – | – | – | – | – | – | – | – | –
QPQSQQSQ [library array peptide, tested lactam constrained and linear] | – | – | – | 2.55 | 2.55 | 2.59 | 2.59 | 2.56 | 2.56 | 4.28 | 3.42 | 2.53 | 2.54
VPSSYNLN [library array peptide, tested lactam constrained and linear] | – | – | – | 2.58 | 2.57 | 2.68 | 2.65 | 2.6 | 2.58 | 4.38 | 3.82 | 2.57 | 2.57
PNYSSAP [library array peptide, tested lactam constrained and linear] | – | – | – | 2.56 | 2.54 | 2.63 | 2.61 | 2.56 | 2.55 | 4.31 | 3.91 | 2.52 | 2.52
TFSSFAPV [library array peptide, tested lactam constrained and linear] | – | – | – | 2.56 | 2.55 | 3.36 | 2.65 | 2.70 | 2.55 | 4.52 | 2.86 | 2.53 | 2.53
TYPIYGPA [library array peptide, tested lactam constrained and linear] | – | – | – | 2.59 | 2.53 | 3.43 | 2.59 | 2.80 | 2.55 | 4.46 | 2.77 | 2.54 | 2.52
TISYPLTP [library array peptide, tested lactam constrained and linear] | – | – | – | 2.56 | 2.53 | 3.49 | 2.59 | 2.84 | 2.55 | 4.55 | 2.86 | 2.54 | 2.53
TTFFQPSY [library array peptide, tested lactam constrained and linear] | – | – | – | 2.55 | 2.54 | 3.35 | 2.59 | 2.78 | 2.54 | 4.46 | 2.77 | 2.52 | 2.54
